Assays:
[1] = tested on: glutamate-mediated sEPSCs in control neurons; assay: Bath application of LQ on corticostriatal slices of wild type mice, sEPSCs; type: cell-based, mouse
cannabinoid CB1 receptor = cannabinoid CB1 receptor (Mus musculus, UniProt P47746); assay: Effect of HU210 on sIPSC frequency in striatal neurons (CB1 sensitivity of GABA synapses); settings: for sIPSC frequency respect to pre-drug values: HU210 1 μM
Method: Recordings were performed between 25 and 35 dpi. Mice were killed by cervical dislocation under halothane anaesthesia, and corticostriatal coronal slices (200 μm) were prepared from fresh tissue blocks of the brain with the use of a vibratome (Centonze et al., 2007, 2009; Rossi et al., 2010a,b). A single slice was then transferred to a recording chamber and submerged in a continuously flowing artificial CSF (ACSF) (34° C., 2-3 ml/min) gassed with 95% O2-5% CO2. The composition of the control ACSF was (in mM): 126 NaCl, 2.5 KCl, 1.2 MgCl2, 1.2 NaH2PO4, 2.4 CaCl2, 11 Glucose, 25 NaHCO3. Recording pipettes were advanced towards individual striatal cells in the slice under positive pressure and visual control (WinVision 2000, Delta Sistemi, Italy) and, on contact, tight GΩ seals were made by applying negative pressure. The membrane patch was then ruptured by suction and membrane current and potential monitored using an Axopatch 1D patch clamp amplifier (Axon Instruments, Foster City, Calif., USA). Whole-cell access resistances measured in voltage clamp were in the range of 5-20 MΩ. Whole-cell patch clamp recordings were made with borosilicate glass pipettes (1.8 mm o.d.; 2-3 MΩ), in voltage-clamp mode, at the holding potential (HP) of −80 mV. […] Conversely, to detect spontaneous GABAAmediated inhibitory postsynaptic currents (sIPSCs), intraelectrode solution had the following composition (mM): CsCl (110), K+-gluconate (30), ethylene glycol-bis(β-aminoethyl ether)-N,N,N′,N′-tetra-acetic acid (EGTA; 1.1), HEPES (10), CaCl2 (0.1), Mg-ATP (4), Na-GTP (0.3). MK-801 (30 μM) and CNQX (10 μM) were added to the external solution to block, respectively, NMDA and nonNMDA glutamate receptors. Synaptic events were stored by using P-CLAMP (Axon Instruments) and analyzed off line on a personal computer with Mini Analysis 5.1 (Synaptosoft, Leonia, N.J., USA) software. The detection threshold of spontaneous IPSCs and EPSCs was set at twice the baseline noise. The fact that no false events would be identified was confirmed by visual inspection for each experiment. Offline analysis was performed on spontaneous and miniature synaptic events recorded during fixed time epochs (3-5 min, 3-6 samplings), sampled every 5 or 10 minutes. […] For kinetic analysis, events with peak amplitude between 10 and 50 pA were grouped, aligned by half-rise time, normalized by peak amplitude. In each cell, the events were averaged to obtain rise times, decay times, and half widths (Centonze et al., 2009; Rossi et al., 2010a,b). […]
For data presented as mean±SE, n indicates the number of cells. One to six cells per animal were recorded. […] Multiple comparisons were analysed by one-way ANOVA followed by Tukey's HSD test. Comparisons between two groups were analysed by paired or unpaired Student's t-test. […]

EAE mice = assay: EAE induction and disease evaluation, preventive daily s.c. LQ; type: in vivo, mouse; settings: for mice that developed the disease (incidence): 0-26 d.p.i., 15 mice; for maximum disease score: score 0-5
Method: Female C57BL/6 mice at 6-8 weeks of age were purchased from Charles River (Calco, Milan, Italy) and housed in pathogen-free conditions. All procedures involving animals were performed according to the guidelines of the San Raffaele Scientific Institute Institutional Animal Care and Use Committee.
EAE was induced by immunization with 3 subcutaneous injection of 100 μl each, containing a total of 200 μg of myelin oligodendrocyte glycoprotein (MOG) peptide 35-55 (Multiple Peptide System) in incomplete Freund's adjuvant and 8 mg/ml of Mycobacterium tuberculosis (strain H37Ra; Difco). Pertussis toxin (Sigma) (500 ng) was injected on the day of the immunization and again two days later. Body weight and clinical score (0=healthy; 1=limp tail; 2=ataxia and/or paresis of hindlimbs; 3=paralysis of hindlimbs and/or paresis of forelimbs; 4=tetraparalysis; 5=moribund or death) were recorded daily.
EAE mice were treated once daily by subcutaneous (s.c.) injection of LQ (supplied by Teva Pharmaceutical Industries, Netanya, Israel) (thereafter referred as LQ-EAE). LQ was administered at different doses (from 1 to 25 mg/kg) starting the same day of immunization up to 26 days post immunization (d.p.i.). Sham treated EAE mice (thereafter referred as untreated-EAE) and healthy control mice (thereafter referred as HC) were used as controls. Statistical analysis was performed using the unpaired Student's t-test.

spinal cord of EAE mice = assay: Histological evaluation of spinal cord of EAE mice; type: in vivo, mouse
Method: At least 5 mice per group were transcardially perfused through the left cardiac ventricle with saline, plus EDTA 0.5 M for 5-10 min followed by fixation with cold 4% paraformaldehyde (PFA) (Sigma, St Louis, Mo.) in 0.1 M phosphate buffer (pH 7.4). Subsequently, spinal cords and brains were carefully dissected out and post-fixed in 4% PFA for 3-4 h and processed for paraffin embedding. The quantification of neurological damage was performed on 5 μm paraffin CNS sections obtained from HC, LQ-EAE mice, and untreated-EAE mice. Three different staining were used to detect inflammatory infiltrates (H&E), demyelination (Luxol fast blue) and axonal damage (Bielshowsky). Immunohistochemistry for CD3 (pan-T cell marker, Serotec Ltd, Oxford, UK), and BS-I isolectin B4 (biotinilated from Sigma, St Louis, Mo.) was performed to investigate T cells and macrophages within the inflammatory cellular infiltrates, respectively. […] Neuropathological findings were quantified on an average of 18-20 complete cross-sections of spinal cord per mouse taken at 8 different levels of the spinal cord. The number of perivascular inflammatory infiltrates were calculated and expressed as the numbers of inflammatory infiltrates per mm^2, demyelinated areas and axonal loss were expressed as percentage of damaged area per mm2. The number of T cells and macrophages lining within the subarachnoid space or infiltrating the CNS parenchyma was calculated and expressed as the number of cells per mm2. An Olympus microscope for the acquisitions of pictures was used. Statistical analysis was performed using the unpaired Student's t-test.

[2] = tested on: glutamate-mediated sEPSCs in striatal neurons; assay: Whole-cell patch clamp of sEPSCs in striatal neurons of LQ-treated EAE mice; type: in vivo, mouse; settings: LQ-EAE mice 25 mg/kg
[3] = tested on: GABAA-mediated sIPSCs in striatal neurons; assay: Whole-cell patch clamp of sIPSCs in striatal neurons of LQ-treated EAE mice; type: in vivo, mouse; settings: LQ-EAE mice 25 mg/kg, n=20
[4] = tested on: GABAA-mediated sIPSCs in control neurons; assay: Bath application of LQ on corticostriatal slices of wild type mice, sIPSCs; type: cell-based, mouse
[5] = mouse, in vivo, sc, 25 mg/kg
[6] = systemically administered (Brück et al., 2011); cited from earlier work
[7] = background statement; cited from earlier work
aEAE model = settings: shown in U.S. Pat. No. 6,077,851; cited from earlier work
[8] = LQ-EAE mice vs untreated-EAE mice
[9] = s.c. LQ vs untreated-EAE mice, spinal cord sections
[10] = LQ 1 μM bath application, control neurons
[11] = LQ 1 μM, 12 minutes, control neurons

Chain of cannabinoid CB1 receptor (P47746 whole entry): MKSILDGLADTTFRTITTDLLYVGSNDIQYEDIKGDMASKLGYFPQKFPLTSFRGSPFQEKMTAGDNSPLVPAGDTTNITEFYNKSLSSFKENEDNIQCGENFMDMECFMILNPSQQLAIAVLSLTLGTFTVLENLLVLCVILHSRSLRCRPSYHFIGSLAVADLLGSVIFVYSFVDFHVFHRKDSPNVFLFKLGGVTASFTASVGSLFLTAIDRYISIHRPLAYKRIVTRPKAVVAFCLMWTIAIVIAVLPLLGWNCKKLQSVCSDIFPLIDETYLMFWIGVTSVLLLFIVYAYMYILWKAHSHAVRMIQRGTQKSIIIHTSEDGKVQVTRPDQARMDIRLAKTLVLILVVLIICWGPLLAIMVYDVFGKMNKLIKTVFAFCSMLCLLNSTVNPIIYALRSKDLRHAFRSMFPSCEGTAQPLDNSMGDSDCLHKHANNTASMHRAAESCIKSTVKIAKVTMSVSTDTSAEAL

SMILES: N#Cc1cc2[nH]c(=O)c(=O)[nH]c2cc1[N+](=O)[O-] [CNQX, reference compound]
- blockade of sEPSCs recorded in the presence of LQ ([1]; CNQX 10 μM, n=5): fully blocked

SMILES: CCCCCCC(C)(C)c1cc(O)c2c(c1)OC(C)(C)[C@@H]1CC=C(CO)C[C@@H]21 [HU210]
- sIPSC frequency respect to pre-drug values (cannabinoid CB1 receptor; 10 min, control slices, n=8): 76±3%
- sIPSC frequency respect to pre-drug values (cannabinoid CB1 receptor; striatal neurons from LQ-EAE mice (25 mg/kg), n=10): 75±3%
- sIPSC frequency respect to pre-drug values (cannabinoid CB1 receptor; striatal neurons from untreated EAE mice, n=10): 101±3%

SMILES: CCN(C(=O)c1c(O)c2c(Cl)cccc2n(C)c1=O)c1ccccc1 [LQ, N-ethyl-N-phenyl-1,2-dihydro-4-hydroxy-5-chloro-1-methyl-2-oxoquinoline-3-carboxamide]
- mice that developed the disease (incidence) (EAE mice; 1 mg/kg LQ s.c. daily, untreated-EAE 15/15): 86.6%
- maximum disease score (EAE mice; 1 mg/kg LQ s.c. daily, sham 3.5): 3.5
- cumulative score (0-26 dpi) (EAE mice; 1 mg/kg LQ s.c. daily, untreated EAE 27.5): 27.3
- mean disease onset (EAE mice; 1 mg/kg LQ s.c. daily, untreated-EAE 11.9 (±2.33)): 11.9 (±2.47)
- cumulative score (0-26 dpi) (EAE mice; 5 mg/kg LQ s.c. daily): 21.5
- mean disease onset (EAE mice; 5 mg/kg LQ s.c. daily): 14.6 (±4.29)
- mice that developed the disease (incidence) (EAE mice; 5 mg/kg LQ s.c. daily): 80%
- maximum disease score (EAE mice; 5 mg/kg LQ s.c. daily): 3
- cumulative score (0-26 dpi) (EAE mice; 25 mg/kg LQ s.c. daily): 21.3
- mice that developed the disease (incidence) (EAE mice; 25 mg/kg LQ s.c. daily): 40%
- maximum disease score (EAE mice; 25 mg/kg LQ s.c. daily): 1.5
- suppression of EAE (EAE mice; preventive treatment 0-26 dpi, daily s.c. 1-25 mg/kg, dose-dependent): significantly suppresses
- mean disease onset (EAE mice; printed "the mg/kg LQ-EAE mice" (dose figure missing), s.c. daily): 13.5 (±2.43)
- CD3+ T cells (spinal cord of EAE mice; [8]): significant reduction
- IB4+ macrophages (spinal cord of EAE mice; [8]): significant reduction
- axonal damage (percentage over total section area) (spinal cord of EAE mice; [9]): significantly reduces
- inflammation (perivascular infiltrates per section) (spinal cord of EAE mice; [9]): significantly reduces
- myelin loss (demyelination, percentage over total section area) (spinal cord of EAE mice; [9]): significantly reduces
- sEPSC decay time ([2]; 25-35 dpi, n=20, untreated-EAE 5.4±0.4, HC 3.4±0.2): 4.2 ± 0.3 ms
- sEPSC frequency ([2]; n=20, untreated-EAE 4.0±0.2, HC 2.7±0.2): 3.4±0.4 Hz
- sEPSC half-width ([2]; n=20, untreated-EAE 6.4±0.4, HC 4.0±0.3): 5.0 ± 0.3 ms
- sEPSC rise time ([2]; untreated-EAE 1.05±0.1, HC 1.03±0.1): 0.98 ± 0.1 ms
- sEPSC amplitude ([2]; untreated-EAE 11.1±0.8, HC 12.0±1.0): 12.2±1.1 pA
- sIPSC frequency ([3]; untreated-EAE 0.8±0.1, HC 1.7±0.1): 2.0±0.2 Hz
- sIPSC amplitude ([3]; untreated-EAE 20±1.5, HC 32±1.3): 29±1.1 pA
- sIPSC amplitude ([4]; LQ 1 μM bath application): failed to alter
- sIPSC frequency ([4]; LQ 1 μM bath application): failed to alter
- sIPSC decay time compared to pre-drug values ([4]; LQ 1 μM, 12 minutes): 98±3%
- sIPSC rise time compared to pre-drug values ([4]; LQ 1 μM, 12 minutes): 101±2%
- sIPSC frequency ([4]; LQ 10-30 μM bath application, n=8, p<0.01): significantly increased
- EC50 ([4]; Mus musculus, Neuron, dose-response curve, bath application, read-out: EC50 of LQ-induced increase of sIPSC frequency): 4.3 µM
- sEPSC amplitude [1, 10]: failed to alter
- sEPSC frequency [1, 10]: failed to alter
- sEPSC decay time compared to pre-drug values [1, 11]: 101±2%
- sEPSC rise time compared to pre-drug values [1, 11]: 99±1%
- sEPSC amplitude ([1]; LQ 10-30 μM bath application, control neurons, n=10, p<0.01): reducing
- EC50 ([1]; Mus musculus, Neuron, dose-response curve, bath application, control neurons, read-out: EC50 of LQ-induced decrease of sEPSC amplitude): 4.5 µM
- sEPSC frequency respect to pre-drug values ([1]; highest concentration of LQ, n=7, p<0.05): 83±2.7%
- CNS concentration [5]: 0.3 to 1 µM
- crossing of the blood brain barrier [6]: able to cross the blood brain barrier
- oral bioavailability [7]: high
- efficacy in the acute experimental autoimmune encephalomyelitis (aEAE) model (aEAE model): effective
- effect of CB1 receptor agonist HU210 on sIPSCs after LQ treatment (cannabinoid CB1 receptor; prophylactic LQ 25 mg/kg in EAE mice): completely restored

From patent US9161936B2, “Laquinimod for treatment of GABA mediated disorders” (TEVA PHARMACEUTICAL INDUSTRIES, LTD., priority 2012, dated 2015)
